Test results published in the supplement of paper PMC10307832.

Columns and labels:
Assay in all cases: relative viability (nuclei count vs DMSO), 5 days (fraction); higher = more cells survive
Irinotecan + Bortezomib = compound: CCc1c2c(nc3ccc(OC(=O)N4CCC(N5CCCCC5)CC4)cc13)-c1cc3c(c(=O)n1C2)COC(=O)[C@]3(O)CC [Irinotecan] + CC(C)C[C@H](NC(=O)[C@H](Cc1ccccc1)NC(=O)c1cnccn1)B(O)O [Bortezomib] (partner 0.002 µM)
In short: (§1)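 Lung cancer cell lines were pin-tool dosed in 1536-well plates on the day after seeding, with either a lone drug or a fixed anchor-drug dose plus five library-drug doses (not always all listed) in √10 steps. Nuclei were counted on 4× images after 5 days. Relative viability is the ratio of treated-well to vehicle-well nuclei counts, with each value a median of duplicate plates.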

RU-SKI 43 + Pemetrexed = compound: CC[C@@H](C)CNCC(=O)N1CCC2=C([C@@H]1COC3=CC=CC(=C3)C)C=CS2 [RU-SKI 43] + Nc1nc2[nH]cc(CCc3ccc(C(=O)N[C@@H](CCC(=O)O)C(=O)O)cc3)c2c(=O)[nH]1 [Pemetrexed] (partner 0.2 µM)
In short: as §1

Irinotecan + Luminespib = compound: CCc1c2c(nc3ccc(OC(=O)N4CCC(N5CCCCC5)CC4)cc13)-c1cc3c(c(=O)n1C2)COC(=O)[C@]3(O)CC [Irinotecan] + CCNC(=O)c1noc(-c2cc(C(C)C)c(O)cc2O)c1-c1ccc(CN2CCOCC2)cc1 [Luminespib] (partner 0.01 µM)
In short: as §1

MK-8033 + Luminespib = compound: Cn1cc(-c2cnc3ccc4ccc(CS(=O)(=O)NCc5ccccn5)cc4c(=O)c3c2)cn1 [MK-8033] + CCNC(=O)c1noc(-c2cc(C(C)C)c(O)cc2O)c1-c1ccc(CN2CCOCC2)cc1 [Luminespib] (partner 0.01 µM)
In short: as §1

| Cell Line | relative viability (Irinotecan + Bortezomib; first compound 0.6325 µM) | relative viability (Irinotecan + Bortezomib; first compound 2 µM) | relative viability (Irinotecan + Bortezomib; first compound 6.325 µM) | relative viability (Irinotecan + Bortezomib; first compound 20 µM) | relative viability (RU-SKI 43 + Pemetrexed; first compound 0.1 µM) | relative viability (RU-SKI 43 + Pemetrexed; first compound 0.3162 µM) | relative viability (RU-SKI 43 + Pemetrexed; first compound 1 µM) | relative viability (RU-SKI 43 + Pemetrexed; first compound 3.162 µM) | relative viability (RU-SKI 43 + Pemetrexed; first compound 10 µM) | relative viability (Irinotecan + Luminespib; first compound 0.6325 µM) | relative viability (Irinotecan + Luminespib; first compound 2 µM) | relative viability (Irinotecan + Luminespib; first compound 6.325 µM) | relative viability (Irinotecan + Luminespib; first compound 20 µM) | relative viability (MK-8033 + Luminespib; first compound 0.02 µM) | relative viability (MK-8033 + Luminespib; first compound 0.2 µM) | relative viability (MK-8033 + Luminespib; first compound 0.6325 µM) | relative viability (MK-8033 + Luminespib; first compound 2 µM) | relative viability (MK-8033 + Luminespib; first compound 0.06325 µM) |
| --- | --- | --- | --- | --- | --- | --- | --- | --- | --- | --- | --- | --- | --- | --- | --- | --- | --- | --- |
| HCC-78 | 0.404 | 0.393 | 0.242 | 0.257 | 0.916 | 0.925 | 0.933 | 0.92 | 0.923 | – | – | – | – | – | – | – | – | – |
| HCC-366 | 0.731 | 0.361 | 0.0441 | 0.0691 | 0.187 | 0.151 | 0.154 | 0.219 | 0.228 | – | – | – | – | – | – | – | – | – |
| HCC-827 | 1.03 | 0.923 | 0.639 | 0.416 | 0.289 | 0.267 | 0.264 | 0.265 | 0.253 | 0.289 | 0.501 | 0.165 | 0.104 | 0.43 | 0.591 | 0.59 | 1.07 | – |
| HOP-62 | 0.642 | 0.2 | 0.112 | 0.179 | 0.327 | 0.292 | 0.344 | 0.334 | 0.284 | 0.254 | 0.361 | 0.203 | 0.21 | 0.938 | 0.814 | 0.941 | 0.86 | 0.794 |
| IA-LM | 0.722 | 0.355 | 0.197 | 0.0773 | – | – | – | – | – | – | – | – | – | – | – | – | – | – |
| LC-2-ad | 0.688 | 0.286 | 0.167 | 0.128 | 0.262 | 0.25 | 0.31 | 0.258 | 0.247 | 0.685 | 0.542 | 0.337 | 0.233 | 1.04 | – | 1.08 | 0.878 | 0.97 |
| LCLC-97TM1 | 0.41 | 0.387 | 0.148 | 0.176 | 0.188 | 0.175 | 0.19 | 0.184 | 0.178 | 0.228 | 0.208 | 0.148 | 0.181 | 0.883 | 0.709 | 0.845 | 0.669 | 0.662 |
| LK-2 | – | – | – | – | 0.362 | 0.343 | 0.347 | 0.245 | 0.304 | 0.162 | 0.224 | 0.264 | 0.327 | 0.172 | 0.265 | 0.187 | 0.26 | – |
| NCI-H358 | – | – | – | – | 0.169 | 0.189 | 0.17 | 0.176 | 0.176 | 0.285 | 0.152 | 0.151 | 0.143 | 0.417 | 0.235 | 0.296 | 0.213 | 0.236 |
| NCI-H522 | – | – | – | – | 1.26 | 0.966 | 1.18 | 1.02 | 1.16 | – | 0.645 | 0.468 | 0.495 | 0.987 | 0.955 | 1.29 | 0.946 | 1.02 |
| NCI-H727 | 0.358 | 0.57 | 0.463 | 0.464 | – | – | – | – | – | 0.271 | 0.455 | 0.501 | 0.494 | 0.434 | 0.291 | 0.346 | 0.516 | – |
| NCI-H1299 | 0.932 | 0.824 | 0.487 | 0.415 | – | – | – | – | – | – | – | – | – | – | – | – | – | – |
| NCI-H1395 | – | – | – | – | 0.992 | 0.805 | 1.2 | 0.855 | 0.967 | 0.76 | 0.651 | 0.388 | 0.534 | 0.764 | 0.526 | 0.735 | 0.584 | 0.559 |
| NCI-H1623 | – | – | – | – | – | – | – | – | – | 0.412 | 0.312 | 0.279 | 0.239 | 0.4 | 0.429 | 0.498 | 0.363 | 0.479 |
| NCI-H1648 | – | – | – | – | 0.682 | 0.861 | 0.531 | 0.659 | 0.558 | – | – | – | – | – | – | – | – | – |
| NCI-H1703 | 0.267 | 0.426 | 0.33 | 0.112 | – | – | – | – | – | – | – | – | – | – | – | – | – | – |
| NCI-H1793 | – | – | – | – | 1.01 | 0.995 | 0.941 | 0.772 | 1.02 | – | 0.193 | 0.192 | 0.262 | 0.174 | 0.161 | 0.209 | 0.162 | 0.217 |
| NCI-H1944 | – | – | – | – | 0.614 | 0.711 | 0.566 | 0.619 | 0.707 | 0.557 | 0.312 | 0.167 | 0.149 | 0.742 | 0.708 | 0.719 | 0.653 | 0.62 |
| NCI-H2170 | – | – | – | – | 0.251 | 0.297 | 0.262 | 0.275 | 0.243 | 0.601 | 0.498 | 0.168 | 0.188 | 0.435 | 0.694 | 0.622 | 0.726 | 0.388 |
| NCI-H2342 | – | – | – | – | 0.757 | – | 0.831 | 0.812 | 0.711 | 0.756 | 0.676 | 0.572 | 0.485 | 0.774 | 0.805 | 0.631 | 0.651 | 0.643 |
| SK-MES-1 | – | – | – | – | 0.962 | 1.13 | 1.12 | 0.964 | 0.916 | 0.818 | 0.521 | 0.324 | 0.234 | 0.628 | 0.722 | 0.908 | 0.823 | 0.728 |
| SW 900 | – | – | – | – | 0.484 | 0.494 | 0.498 | 0.478 | 0.461 | 0.203 | 0.387 | 0.366 | 0.465 | 0.147 | 0.177 | 0.18 | 0.187 | 0.175 |
